Assay results as given in patent US20150368642A1, “LNA OLIGONUCLEOTIDE CARBOHYDRATE CONJUGATES” (HOFFMANN-LA ROCHE INC., priority 2013, published 2015).
l = locked nucleic acid (LNA); d = 2'-deoxy (DNA)

Experiments:
ApoB [1] = experiment: Total cholesterol in serum (Example 5); type: in vivo, C57BL6/J mice; conditions: mice, iv and sc administration, versus SEQ ID NO 12 and 14, FIG. 9
Source text: (§1) Capital letters are LNA nucleosides (such as beta-D-oxy LNA), lower case letters are a DNA nucleoside. Subscript s represents a phosphorothioate internucleoside linkage (region A). LNA cytosines are optionally 5-methyl cytosine. The 2PO linker (region B) is 5′ to the sequence region A, and comprises of two DNA nucleosides linked by phosphodiester linkage, with the internucleoside linkage between the 3′ DNA nucleoside of region A and the 5′ LNA nucleoside of region A also being phosphodiester. A linkage group (Y) may be used to link the conjugate group, when present, to region B, or A (SEQ ID NO 13 and 11). […]
(§2) RNA was isolated from liver and kidney and subjected to qPCR with ApoB specific primers and probe to analyse for ApoB mRNA knockdown. The oligonucleotide content was measured using ELISA method and total cholesterol in serum was measured.
Immediately before sacrifice retro-orbital sinus blood was collected using S-monovette Serum-Gel vials (Sarstedt, Nümbrecht, Germany) for serum preparation. Serum was analyzed for total cholesterol using ABX Pentra Cholesterol CP (Triolab, Brondby, Denmark) according to the manufacturer's instructions.

ApoB mRNA = experiment: Knock down of ApoB mRNA in liver and kidney (qPCR, Example 5); type: in vivo, C57BL6/J mice; conditions: mice; for knock down of ApoB mRNA: single iv or sc dose equimolar to 0.25 mg/kg, days 1-7, FIG. 8
Source text: Capital letters are LNA nucleosides (such as beta-D-oxy LNA), lower case letters are a DNA nucleoside. Subscript s represents a phosphorothioate internucleoside linkage (region A). LNA cytosines are optionally 5-methyl cytosine. The 2PO linker (region B) is 5′ to the sequence region A, and comprises of two DNA nucleosides linked by phosphodiester linkage, with the internucleoside linkage between the 3′ DNA nucleoside of region A and the 5′ LNA nucleoside of region A also being phosphodiester. A linkage group (Y) may be used to link the conjugate group, when present, to region B, or A (SEQ ID NO 13 and 11). C57BL6/J mice were injected either iv or sc with a single dose saline or 0.25 mg/kg unconjugated LNA-antisense oligonucleotide (SEQ ID N012) or equimolar amounts of LNA antisense oligonucleotides conjugated to GalNAc1, GalNAc2, or cholesterol (2PO) and sacrificed at days 1-7 according to the table below (experimental design).
as §2
C57BL/6JBom female animals, app. 20 g at arrival, were dosed with 10 ml per kg BW (according to day 0 bodyweight) i.v. or s.c. of the compound formulated in saline or saline alone according to the table above.
The animals were anaesthetised with 70% CO2-30% O2 and sacrificed by cervical dislocation according to the above table. One half of the large liver lobe and one kidney were minced and submerged in RNAlater. The other half of liver and the other kidney was frozen and used for tissue analysis. […]
(§3) For each sample 0.5 μg total RNA was adjusted to (10.8 μl) with RNase free H2O and mixed with 2 μl random decamers (50 μM) and 4 μl dNTP mix (2.5 mM each dNTP) and heated to 70° C. for 3 min after which the samples were rapidly cooled on ice. […] Oligonucleotide content in liver and kidney was measured by sandwich ELISA method.

[2] = Oligonucleotide content in liver and kidney by sandwich ELISA (Example 5); type: in vivo, C57BL6/J mice; conditions: mice
Source text: as §1
RNA was isolated from liver and kidney and subjected to qPCR with ApoB specific primers and probe to analyse for ApoB mRNA knockdown. The oligonucleotide content was measured using ELISA method and total cholesterol in serum was measured. […]
as §3

miR-122 = experiment: LNA antimiR GalNAc conjugates, miR122 knock down in mice; type: in vivo, mouse; conditions: for Aldo A and Bckdk mRNA: already in the low dose group (3×0.5 mg/kg), liver; for miR122 knock down in the liver: i.v. days 0, 2 and 4, day 7, compared to parent LNA; for total cholesterol levels: i.v. days 0, 2 and 4, serum pre-dose, day 4 and day 7
Description: (§4) An in vivo mouse study was performed using a total of 9 groups of mice (n=5). Each mouse was dosed i.v. on days 0, 2 and 4 with either 0.5 mg/kg or 2 mg/kg or equimolar doses of the GalNAc conjugated LNA's compared to parent LNA compound. A saline control group was included (see study set up in Tab. 1). Serum samples were taken 4 days pre administration, interim at day 4 and at endpoint day 7. Liver and kidney samples were stored in RNA later. Validation of miR122 knock down of miR122 was done as described in Obad Nat Genet. 2011 Mar. 20; 43(4):371-8 (FIG. 17). The cholesterol level in serum were analyzed as described in Elmen J, et al. LNA-mediated microRNA silencing in non-human primates. Nature. 2008; 452:896-899. (FIG. 18) and mRNA levels of two miR122 down regulated genes (Aldo A and Bckdk) were analyzed using standard QPCR assay techniques (FIG. 19). ALT was measured to assess tolerability of the compounds (FIG. 20).

[3] = ALT in final serum (antimiR-122 study); type: in vivo, mouse; conditions: mice, final serum day 7
Description: Serum analysis for ALT, AST and cholesterol was performed on the “Cobas INTEGRA 400 plus” clinical chemistry platform (Roche Diagnostics), using 10 μl of serum.
as §4

PCSK9 = experiment: Non-human primate study, serum PCSK9 protein ELISA; type: in vivo; conditions: cynomolgus monkeys, single dose, entire length of the study
Description: (§5) The primary objective for this study is to investigate selected lipid markers over 7 weeks after a single slow bolus injection of anti-PCSK9 and anti-ApoB LNA conjugated to GalNac cluster (Conj2a) to cynomolgus monkeys and assess the potential toxicity of compounds in monkey. The compounds which were prepared in sterile saline (0.9%) at an initial concentration of 0.625 and 2.5 mg/ml).
Male (PCSK9) or female monkeys (ApoB) monkeys of at least 24 months old are used, and given free access to tap water and 180 g of MWM(E) SQC SHORT expanded diet (Dietex France, SDS, Saint Gratien, France) will be distributed daily per animal. The total quantity of food distributed in each cage will be calculated according to the number of animals in the cage on that day. In addition, fruit or vegetables will be given daily to each animal. The animals will be acclimated to the study conditions for a period of at least 14 days before the beginning of the treatment period. […] After three weeks, the data will be analyzed and a second group of animals using a higher or lower dosing regimen may be initiated—preliminary dose setting is 0.5 mg/kg and 1 mg/kg, or lower than that based on the first data set.
The dose formulations will be administered once on Day 1. […] Clinical observations and body weight and food intake (per group) will be recorded prior to and during the study. […]

ApoB [4] = experiment: Non-human primate study, serum ApoB and LDL-C (ApoB conjugates); type: in vivo, cynomolgus monkeys; conditions: Example 7; single i.v. dose; FIG. 16
Description: as §5
Male (PCSK9) or female monkeys (ApoB) monkeys of at least 24 months old are used, and given free access to tap water and 180 g of MWM(E) SQC SHORT expanded diet (Dietex France, SDS, Saint Gratien, France) will be distributed daily per animal. The total quantity of food distributed in each cage will be calculated according to the number of animals in the cage on that day. In addition, fruit or vegetables will be given daily to each animal. The animals will be acclimated to the study conditions for a period of at least 14 days before the beginning of the treatment period. During this period, pre-treatment investigations will be performed. The animals are dosed i.v. at a dose if, for example, 0.25 mg/kg or 1 mg/kg. The dose volume will be 0.4 mL/kg. 2 animals are used per group. After three weeks, the data will be analyzed and a second group of animals using a higher or lower dosing regimen may be initiated—preliminary dose setting is 0.5 mg/kg and 1 mg/kg, or lower than that based on the first data set.
The dose formulations will be administered once on Day 1. Animals will be observed for a period of 7 weeks following treatment, and will be released from the study on Day 51. Day 1 corresponds to the first day of the treatment period. Clinical observations and body weight and food intake (per group) will be recorded prior to and during the study.
The following parameters will be determined for all surviving animals at the occasions indicated below: • full biochemistry panel (complete list below)—on Days −8, 15 and 50, • liver Safety (ASAT, ALP, ALAT, TBIL and GGT only)—on Days 4, 8, 22 and 36, • lipid profile (Total cholesterol, HDL-C, LDL-C and Triglycerides) and Apo-B only—on Days −1, 4, 8, 22, 29, 36, and 43.
Blood (approximately 1.0 mL) is taken into lithium heparin tubes (using the ADVIA 1650 blood biochemistry analyzer): Apo-B, sodium, potassium, chloride, calcium, inorganic phosphorus, glucose, HDL-C, LDL-C, urea, creatinine, total bilirubin (TBIL), total cholesterol, triglycerides, alkaline phosphatase (ALP), alanine aminotransferase (ALAT), aspartate aminotransferase (ASAT), creatine kinase, gamma-glutamyl transferase (GGT), lactate dehydrogenase, total protein, albumin, albumin/globulin ratio.
Other Analysis: WO2011009697 & WO2010142805 provides the methods for the following analysis: qPCR, PCSK9/ApoB mRNA analysis, Other analysis includes PCSK9/ApoB protein ELISA, serum Lp(a) analysis with ELISA (Mercodia No. 10-1106-01), tissue and plasma oligonucleotide analysis (drug content), Extraction of samples, standard- and QC-samples, Oligonucleotide content determination by ELISA. […] There was no indication of hepatotoxicity or nephrotoxicity with the ApoB targeting compounds.

| Substance | total cholesterol in serum (ApoB [1]) | knock down of ApoB mRNA (ApoB mRNA) | Aldo A and Bckdk mRNA (miR-122) | miR122 knock down in the liver (miR-122) | total cholesterol levels (miR-122) | ALT [3] | further results |
| --- | --- | --- | --- | --- | --- | --- | --- |
| SEQ ID NO 13: GsCsaststsgsgstsastsTsCsA, GalNAc cluster Conj1a; ApoB (GCATTGGTATTCA; sugars from the 5' end l2 d8 l3, all phosphorothioate, methylation of C not given here; GalNAc cluster Conj1a conjugated) | better effect that the unconjugated and the cholesterol conjugated compounds | knock down of ApoB mRNA better than the unconjugated ApoB LNA | – | – | – | – | knock down of ApoB mRNA, iv versus sc dosing (ApoB mRNA; single dose 0.36 mg/kg): iv dosing is better than sc dosing; tissue content of the oligonucleotides, uptake in liver ([2]; iv and sc, FIG. 10): very much uptake in liver |
| SEQ ID NO 52: 5′-Conj1a^mCsAs^mCsAs^mCsTs^mCs^mC-3′ (CACACTCC; LNA, 5-methyl C, 5' GalNAc Conj1a, chemistry not fully specified) | – | – | up regulation of Aldo A and Bckdk mRNA | remarkable improvement of miR122 knock down in the liver | decreased total cholesterol levels | increase in ALT | – |
| SEQ ID NO 28: AsAsTsgscstsascsasasasasCsCsCsA, GalNAc cluster Conj2a; PCSK9 (AATGCTACAAAACCCA; listed as DNA, chemistry not fully specified) | – | – | – | – | – | – | down regulation of PCSK9 (and LDL-C), onset and duration (PCSK9): rapid and consistent down regulation of PCSK9 and LDL-C throughout the duration of the study |
| SEQ ID NO 11: GsCsaststsgsgstsastsTsCsA, GalNAc cluster Conj2a; ApoB (GCATTGGTATTCA; listed as DNA, chemistry not fully specified) | better effect that the unconjugated and the cholesterol conjugated compounds | knock down of ApoB mRNA better than the unconjugated ApoB LNA | – | – | – | – | pharmacology (serum ApoB and LDL-C) (ApoB [4]): did not exhibit significant pharmacology; specific activity (activity relative to liver uptake) ([2]; iv dosing): higher specific activity than GalNAc 1 conjugate |
| SEQ ID NO 54: 5′-Conj1a^mCsAs^mCsAs^mCsTs^mCs^mCca^mCsAs^mCsAs^mCsTs^mCs^mC-3′ (CACACTCCCACACACTCC; LNA, 5-methyl C, ca linker, 5' GalNAc Conj1a, chemistry not fully specified) | – | – | up regulation of Aldo A and Bckdk mRNA | remarkable improvement of miR122 knock down in the liver | decreased total cholesterol levels | tendency to improve | – |
